Patent US20260103465A1, “GLYCOGEN SYNTHASE KINASE 3 INHIBITORS AND USES THEREOF” (The Broad Institute, Inc., priority 2023, published 2026)
Like-named read-outs stand apart in the source and are kept apart here.

What was measured:
[1] = molecular target: T1, GSK3a (GST-full length GSK3a) (Homo sapiens, UniProt P49840); assay: GSK3a TR-FRET kinase inhibition assay; type: biochemical
T1 construct: GST-full length GSK3a [SignalChem G08-10G]; purchased SignalChem G08-10G
Description: (§1) TR-FRET assay was performed in a white, 384 well, low volume, flat bottom plate (Grenier). After a 30 minute preincubation in assay buffer with the indicated concentration of compound, the kinase activity was initiated by the addition of the substrates. 1 nM GSK3a (GST-full length GSK3a [SignalChem G08-10G]) or 1 nM GSK3b (GST-full length GSK3b: [SignalChem G08-9G]) were then incubated at ambient temperature for 100 minutes in 10 μl of 50 mM Tris, pH 7.5, 20 mM MgCl2, 0.05 mM DTT, 100 μg/ml BSA and 1% DMSO, with 200 nM biotinylated peptide substrate (biotinylated and S645 phosphorylated glycogen synthase 631-650) and ATP (e.g., at 2 μM, 4 μM, 10 μM, 100 μM, or 1 mM). The kinase activity was quenched with 2 μl of 250 mM EDTA. A 10 μl volume of 40 nM Strepavidin-d2, 2 nM […] antibody in TR-FRET Detection Buffer (Invitrogen) was then added. After 60 min at room temperature the plate was read on Envision plate reader using Ex: 340 nm, Em: 615 nm and […]. The normalized 665/615 Signal ratio versus log compound concentration was analyzed by XLFIT to yield IC50 values.

[2] = molecular target: T2, GSK3b (GST-full length GSK3b) (Homo sapiens, UniProt P49841); assay: GSK3b TR-FRET kinase inhibition assay; type: biochemical
T2 construct: GST-full length GSK3b: [SignalChem G08-9G]; purchased SignalChem G08-9G
T2 sequence (P49841 whole entry): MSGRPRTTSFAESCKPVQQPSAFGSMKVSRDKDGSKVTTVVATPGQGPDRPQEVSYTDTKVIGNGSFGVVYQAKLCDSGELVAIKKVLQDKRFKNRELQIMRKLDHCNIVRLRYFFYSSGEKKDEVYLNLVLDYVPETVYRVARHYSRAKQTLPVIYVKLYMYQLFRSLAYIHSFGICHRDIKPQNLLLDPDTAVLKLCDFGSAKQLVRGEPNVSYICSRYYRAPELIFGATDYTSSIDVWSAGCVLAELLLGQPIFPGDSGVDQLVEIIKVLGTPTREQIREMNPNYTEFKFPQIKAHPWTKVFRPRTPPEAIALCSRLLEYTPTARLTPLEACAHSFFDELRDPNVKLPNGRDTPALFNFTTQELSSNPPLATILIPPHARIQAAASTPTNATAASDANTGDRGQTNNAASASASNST
Description: as §1

[3] = 4 μM ATP, read-out: GSK3α TR-FRET 4 μM ATP GMean IC50
[4] = 2 μM ATP, read-out: GSK3β TR-FRET 2 μM ATP GMean IC50
[5] = 1 mM ATP, Table 3, read-out: GSK3a TR-FRET 1 mM ATP Average IC50
[6] = 1 mM ATP, Table 3, read-out: GSK3b TR-FRET 1 mM ATP Average IC50
[7] = 1 mM ATP, Table 5, read-out: GSK3α TR-FRET 1 mM ATP Average IC50
[8] = 1 mM ATP, Table 5, read-out: GSK3β TR-FRET 1 mM ATP Average IC50

T1 sequence (P49840 whole entry): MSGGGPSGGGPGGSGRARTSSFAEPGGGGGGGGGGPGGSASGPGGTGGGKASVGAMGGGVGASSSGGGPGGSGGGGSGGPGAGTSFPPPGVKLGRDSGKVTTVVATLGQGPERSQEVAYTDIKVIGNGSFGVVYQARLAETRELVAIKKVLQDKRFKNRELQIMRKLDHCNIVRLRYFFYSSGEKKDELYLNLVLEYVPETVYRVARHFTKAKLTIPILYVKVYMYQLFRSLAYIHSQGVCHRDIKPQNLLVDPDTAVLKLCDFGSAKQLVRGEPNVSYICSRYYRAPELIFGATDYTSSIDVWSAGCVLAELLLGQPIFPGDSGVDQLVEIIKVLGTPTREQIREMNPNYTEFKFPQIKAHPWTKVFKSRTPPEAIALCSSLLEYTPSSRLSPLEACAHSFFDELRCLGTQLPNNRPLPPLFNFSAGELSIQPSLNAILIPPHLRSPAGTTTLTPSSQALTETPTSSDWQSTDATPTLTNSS

CCC1(c2cccc(-c3cnn(C)c3)c2)C2=C(CC(C)(C)CC2=O)Nc2ncccc21 (single isomer, unassigned) [Compound 1018A]
IC50 [1, 3]: > 5 µM
IC50 [2, 4]: > 5000 nM

COc1cncc(F)c1-c1cccc(C2(C)C3=C(CC(C)(C)CC3=O)Nc3ncc(C4CC4)cc32)c1 (single isomer, unassigned) [Compound 167A]
IC50 [1, 5]: 0.1 to 1 µM
IC50 [2, 6]: 100 to 1000 nM

CC1(C)CC(=O)C2=C(C1)Nc1ncc(F)c(C(F)(F)F)c1C2(C)c1ccccc1 (single isomer, unassigned) [Compound 135B]
IC50 [1, 5]: 5 to 20 µM
IC50 [2, 6]: 1000 to 5000 nM

CCC1(c2cccc(C(F)(F)F)c2)C2=C(CC(C)(C)CC2=O)Nc2ncccc21 (single isomer, unassigned) [Compound 1014B]
IC50 [1, 3]: ≤ 0.1 µM
IC50 [2, 4]: 100 to 1000 nM

CC1(C)CC(=O)C2=C(C1)Nc1ncc(C(F)(F)F)c(C3CC3)c1C2(C)c1ccccc1 (single isomer, unassigned) [642B]
IC50 [1, 7]: 5 to 20 µM
IC50 [2, 8]: 5000 to 20000 nM

CC1(C)CC(=O)C2=C(C1)Nc1ncc3ccccc3c1C2(C)c1ccccc1 (single isomer, unassigned) [606A]
IC50 [1, 7]: 5 to 20 µM
IC50 [2, 8]: 5000 to 20000 nM

CC1(C)CC(=O)C2=C(C1)Nc1ncccc1C2(C)c1cccc(-c2ccncc2N2CCOCC2)c1 (single isomer, unassigned) [Compound 164A]
IC50 [1, 5]: 1 to 5 µM
IC50 [2, 6]: 1000 to 5000 nM

CC1(C)CC(=O)C2=C(Nc3ncc(C(F)F)c(C#N)c3[C@]2(C)c2ccccc2)[C@@H]1F (single isomer, unassigned) [Compound 633C]
IC50 [1, 7]: 5 to 20 µM
IC50 [2, 8]: 5000 to 20000 nM

CN1C(=O)C2=C(CC1(C)C)Nc1ncc(F)c(C#N)c1C2(C)c1ccccc1 (single isomer, unassigned) [615B]
IC50 [1, 7]: ≤ 0.1 µM
IC50 [2, 8]: ≤ 100 nM

CCC1(c2cccc(-c3ccncc3OC)c2)C2=C(CC(C)(C)CC2=O)Nc2ncccc21 (single isomer, unassigned) [Compound 1028B]
IC50 [1, 3]: ≤ 0.1 µM
IC50 [2, 4]: ≤ 100 nM

CCc1ccnc2c1C(C)(c1ccccc1)C1=C(CC(C)(C)CC1=O)N2 (single isomer, unassigned) [Compound 112A]
IC50 ([1]; 100 μM ATP, read-out: GSK3a 100 μM ATP Average IC50): ≤ 0.1 µM
IC50 [1, 5]: 1 to 5 µM
IC50 ([2]; 100 μM ATP, read-out: GSK3b 100 μM ATP Average IC50): ≤ 100 nM
IC50 [2, 6]: 1000 to 5000 nM

CCC1(c2ccccc2)C2=C(CC(C)(C)NC2=O)Nc2ncc(F)cc21 (single isomer, unassigned) [Compound 1007A]
IC50 [1, 3]: > 5 µM
IC50 [2, 4]: > 5000 nM

CC1(C)CC(=O)C2=C(C1)Nc1ncc(F)c(C#N)c1C2(C)c1cccc(-c2ccncc2CC(F)(F)F)c1 (single isomer, unassigned) [656A]
IC50 [1, 7]: 0.1 to 1 µM
IC50 [2, 8]: 100 to 1000 nM

COc1cnc2c(c1C#N)C(C)(c1ccccc1)C1=C(CC(C)(C)CC1=O)N2 (single isomer, unassigned) [612B]
IC50 [1, 7]: 5 to 20 µM
IC50 [2, 8]: 5000 to 20000 nM

CC1(C)CC(=O)C2=C(C1)Nc1ncc(Br)c(Cl)c1C2(C)c1ccccc1 (single isomer, unassigned) [Compound 145A]
IC50 [1, 5]: 1 to 5 µM
IC50 [2, 6]: 1000 to 5000 nM

CC(C)c1cnc2c(c1C#N)C(C)(c1ccccc1)C1=C(CC(C)(C)CC1=O)N2 (single isomer, unassigned) [622B]
IC50 [1, 7]: 5 to 20 µM
IC50 [2, 8]: 5000 to 20000 nM

CC1(C)CC(=O)C2=C(C1)Nc1nccc(CC(F)(F)F)c1C2(C)c1ccccc1 (single isomer, unassigned) [Compound 132A]
IC50 [1, 5]: 1 to 5 µM
IC50 [2, 6]: 1000 to 5000 nM

Cc1nn(C)c(C)c1-c1cccc(C2(C)C3=C(CC(C)(C)CC3=O)Nc3ncc(C(F)(F)F)cc32)c1 (single isomer, unassigned) [Compound 170B]
IC50 [1, 5]: 5 to 20 µM
IC50 [2, 6]: 1000 to 5000 nM

CC1(C)CC(=O)C2=C(C1)Nc1ncccc1C2(C)c1cccc(-c2ccncc2OCC(F)F)c1 (single isomer, unassigned) [Compound 162A]
IC50 [1, 5]: 5 to 20 µM
IC50 [2, 6]: 1000 to 5000 nM

CCc1cnc2c(c1C#N)C(C)(c1ccccc1)C1=C(CC(C)(C)CC1=O)N2 (single isomer, unassigned) [608A]
IC50 [1, 7]: 1 to 5 µM
IC50 [2, 8]: 1000 to 5000 nM

CCC1(c2cccc(-c3cnn(C)c3)c2)C2=C(CC(C)(C)CC2=O)Nc2ncccc21 (single isomer, unassigned) [Compound 1018B]
IC50 [1, 3]: ≤ 0.1 µM
IC50 [2, 4]: ≤ 100 nM

CC(C)Oc1cccc(C2(C)C3=C(CC(C)(C)CC3=O)Nc3ncc(F)cc32)c1 (single isomer, unassigned) [629B]
IC50 [1, 7]: 0.1 to 1 µM
IC50 [2, 8]: 100 to 1000 nM

CCC1(c2cccc(-c3cc(C)ncc3C)c2)C2=C(CC(C)(C)CC2=O)Nc2ncccc21 (single isomer, unassigned) [Compound 1027A]
IC50 [1, 3]: > 5 µM
IC50 [2, 4]: > 5000 nM

COc1cncc(CC(C)(C)C)c1-c1cccc(C2(C)C3=C(CC(C)(C)CC3=O)Nc3ncccc32)c1 (single isomer, unassigned) [Compound 172A]
IC50 [1, 5]: 0.1 to 1 µM
IC50 [2, 6]: 100 to 1000 nM

CC1(C)CC(=O)C2=C(C1)Nc1ncc(CO)c(C#N)c1C2(C)c1ccccc1 (single isomer, unassigned) [613B]
IC50 [1, 7]: 5 to 20 µM
IC50 [2, 8]: 1000 to 5000 nM

CCC1(c2ccccc2)C2=C(CC(C)(C)CC2=O)Nc2ncc(F)cc21 (racemic) [Compound 114]
IC50 [1, 3]: ≤ 0.1 µM
IC50 [2, 4]: ≤ 100 nM

C=Cc1c(C(F)(F)F)cnc2c1C(C)(c1ccccc1)C1=C(CC(C)(C)CC1=O)N2 (single isomer, unassigned) [636A]
IC50 [1, 7]: 1 to 5 µM
IC50 [2, 8]: 100 to 1000 nM

CC(C)n1cncc1-c1cccc(C2(C)C3=C(CC(C)(C)CC3=O)Nc3ncc(C(F)(F)F)cc32)c1 (single isomer, unassigned) [Compound 171A]
IC50 [1, 5]: 1 to 5 µM
IC50 [2, 6]: 1000 to 5000 nM

CC1(C)CC(=O)C2=C(C1)Nc1ncc(F)c(C3CC3)c1C2(C)c1ccccc1 (single isomer, unassigned) [Compound 125A]
IC50 [1, 5]: 0.1 to 1 µM
IC50 [2, 6]: 100 to 1000 nM

CC1(C)CC2=C(C(=O)[C@@H]1F)[C@](C)(c1ccccc1)c1c(ncc(F)c1C#N)N2 (single isomer, unassigned) [Compound 616B]
IC50 [1, 7]: 0.1 to 1 µM
IC50 [2, 8]: 100 to 1000 nM

CC1(C)CC(=O)C2=C(C1)Nc1ncc(F)cc1C2(C)c1cccc(-c2ccncc2CC(F)(F)F)c1 (single isomer, unassigned) [653A]
IC50 [1, 7]: 1 to 5 µM
IC50 [2, 8]: 1000 to 5000 nM

Cc1cnc2c(c1C#N)C(C)(c1ccccc1)C1=C(CC(C)(C)CC1=O)N2 (single isomer, unassigned) [603B]
IC50 [1, 7]: 0.1 to 1 µM
IC50 [2, 8]: 100 to 1000 nM

CCC1(c2cccc(C3CCC3)c2)C2=C(CC(C)(C)CC2=O)Nc2ncccc21 (racemic) [Compound 1012]
IC50 [1, 3]: ≤ 0.1 µM
IC50 [2, 4]: ≤ 100 nM

CC(C)c1ccnc2c1C(C)(c1ccccc1)C1=C(CC(C)(C)CC1=O)N2 (single isomer, unassigned) [Compound 120A]
IC50 [1, 5]: 1 to 5 µM
IC50 [2, 6]: 100 to 1000 nM

CCC1(c2ccccc2)C2=C(Nc3ncccc31)C(F)C(C)(C)CC2=O (single isomer, unassigned) [Compound 1006B]
IC50 [1, 3]: > 5 µM
IC50 [2, 4]: > 5000 nM

C=Cc1cnc2c(c1Br)C(C)(c1ccccc1)C1=C(CC(C)(C)CC1=O)N2 (single isomer, unassigned) [640B]
IC50 [1, 7]: 5 to 20 µM
IC50 [2, 8]: 5000 to 20000 nM

CC1(C)CC(=O)C2=C(C1)Nc1ncccc1C2(C)c1cccc(-c2ccncc2OCC(F)F)c1 (single isomer, unassigned) [Compound 162B]
IC50 [1, 5]: 0.1 to 1 µM
IC50 [2, 6]: 100 to 1000 nM

CC1(C)CC2=C(C(=O)N1)C(C)(c1ccccc1)c1c(ncc(C(F)F)c1C#N)N2 (single isomer, unassigned) [628B]
IC50 [1, 7]: 1 to 5 µM
IC50 [2, 8]: 100 to 1000 nM

CN(C)c1cnc2c(c1C#N)C(C)(c1ccccc1)C1=C(CC(C)(C)CC1=O)N2 (single isomer, unassigned) [624B]
IC50 [1, 7]: > 20 µM
IC50 [2, 8]: 5000 to 20000 nM

COc1cncc(F)c1-c1cccc(C2(C)C3=C(CC(C)(C)CC3=O)Nc3ncc(F)cc32)c1 (single isomer, unassigned) [Compound 156B]
IC50 [1, 5]: 5 to 20 µM
IC50 [2, 6]: 5000 to 20000 nM

CC1(C)CC(=O)C2=C(C1)Nc1nccc(CC3CC3)c1C2(C)c1ccccc1 (single isomer, unassigned) [Compound 123A]
IC50 [1, 5]: 1 to 5 µM
IC50 [2, 6]: 1000 to 5000 nM

CCC1(c2cccc(-c3cc(C)nn3C)c2)C2=C(CC(C)(C)CC2=O)Nc2ncc(F)cc21 (single isomer, unassigned) [Compound 1033B]
IC50 [1, 3]: ≤ 0.1 µM
IC50 [2, 4]: ≤ 100 nM

CCC1(c2ccccc2)C2=C(CC(C)(C)CC2=O)Nc2ncc(F)cc21 (single isomer, unassigned) [114 B]
IC50 [1, 3]: 0.1 to 1 µM
IC50 [2, 4]: 1000 to 5000 nM

CCC1(c2ccccc2)C2=C(CC3(CCC3)CC2=O)Nc2ncccc21 (single isomer, unassigned) [110 B]
IC50 [1, 3]: > 5 µM
IC50 [2, 4]: > 5000 nM
